Laboratory results reported in patent US20210008088A1, “COMPOSITION FOR PREVENTING OR TREATING NON-ALCOHOLIC LIVER DISEASE OR INSULIN RESISTANCE COMPRISING GINSENOSIDE F2” (INTELLIGENT SYNTHETIC BIOLOGY CENTER, priority 2015, published 2021).

Legend:
[1] = system: adipogenesis in the liver (SREBP1c, FAS, CB1R, NAPE-PLD); assay: Analysis of liver tissues of high fat diet-fed mice (H&E, Oil-red O staining, triglyceride, protein and gene expression); type: in vivo, mouse
Protocol: Hematoxylin and Eosin (H&E) staining was performed for the observation of the changes in the liver tissues, and the triglycerides in hepatocytes were stained via Oil-red O staining, and the results are shown under ×100 magnification (FIG. 2A). As a result, it was confirmed again that the lipid accumulation in hepatocytes was reduced.

hepatic stellate cells = assay: Expression of endocannabinoid synthase in hepatic stellate cells treated with TNF-α; type: cell-based; conditions: hepatic stellate cells after TNF-α; 10 μM, 20 μM, and 30 μM; 24 hours (FIG. 5)
Protocol: After treating hepatic stellate cells with TNF-α, they were treated with ginsenoside F2 at concentrations of 10 μM, 20 μM, and 30 μM, and cultured for 24 hours. As a result of examining the difference in expression levels in the cultured hepatic stellate cells, it was confirmed that ginsenoside F2 inhibits the expression of DAGLα and DAGLβ, which are enzymes important for the synthesis of 2-AG, a kind of endocannabinoids, and that ginsenoside F2 inhibits the expression of NAPE-PLD and FAAH, which are factors associated with liver damage (FIG. 5).

[2] = system: breast cancer stem cells (CSCs); conditions: inducing apoptosis along with autophagy in breast cancer stem cells; Mai T T et al. 2012; cited from earlier work
[3] = system: mouse fed with high fat diet; assay: Improvement in insulin sensitivity: blood glucose after glucose and insulin administration; type: in vivo; conditions: vs control group (FIG. 3)
Protocol: An eleven-week-old mouse was administered with glucose and insulin and the blood glucose level was monitored in a time-dependent manner.

[4] = system: inflammatory cytokines (TNF-α, IL-1β, and IL-6); assay: Expression of inflammatory cytokines in mouse fed with high fat diet; type: in vivo; conditions: mouse fed with high fat diet and ginsenoside F2 (FIG. 4)
[5] = system: mouse model fed with high fat diet; assay: Effect of alleviating fatty liver in mouse model fed with high fat diet; type: in vivo; conditions: 50 mg/kg orally five days a week for 12 weeks
Protocol: The effect of ginsenoside F2 on alleviating fatty liver was confirmed using a mouse model fed with high fat diet. Eight-week-old male mouse (body weight; 25 g to 28 g) were orally fed with high fat diet and ginsenoside F2 (50 mg/kg) five days a week for a period of 12 weeks. […] From the results, it was confirmed that ginsenoside F2 has the effect of inhibiting fatty liver production in mice even when they were fed with high fat diet.

glioblastoma = conditions: xenograft model in SD rats; Shin J Y et al. 2012; cited from earlier work
[6] = liver, high fat diet-fed mice (FIGS. 2C and 2D)

In the case of `CC(C)=CCC[C@](C)(O[C@@H]1O[C@H](CO)[C@@H](O)[C@H](O)[C@H]1O)[C@H]1CC[C@]2(C)[C@@H]1[C@H](O)C[C@@H]1[C@@]3(C)CC[C@H](O[C@@H]4O[C@H](CO)[C@@H](O)[C@H](O)[C@H]4O)C(C)(C)[C@@H]3CC[C@]12C` [ginsenoside F2], the “lipid accumulation in hepatocytes” value ([1]; H&E and Oil-red O staining, ×100 magnification (FIG. 2A)) is reported as “reduced”, the “triglyceride level in the liver” value ([1]; high fat diet-fed mice (FIG. 2B)) is reported as “lowered” and the “expression of CB1R gene” value [1, 6] is reported as “reduced”. The “expression of FAS gene” value [1, 6] was “reduced”, the “expression of NAPE-PLD gene” value [1, 6] was “reduced” and the “expression of SREBP1c gene” value [1, 6] was “reduced”. The “protein expression of FAS” value [1, 6] was “reduced”, the “protein expression of SREBP1c” value [1, 6] was “reduced” and the “expression of DAGLα” value (hepatic stellate cells) was “inhibits”. The “expression of DAGLβ” value (hepatic stellate cells) was “inhibits”, the “expression of FAAH” value (hepatic stellate cells) was “inhibits” and the “expression of NAPE-PLD” value (hepatic stellate cells) was “inhibits”. The “anticancer effect in breast cancer” value [2] was “anticancer effect”, the “blood glucose level with time” value [3] was “decrease” and the “expression of IL-1β” value [4] was “inhibit”. For the same molecule, the “expression of IL-6” value [4] was “inhibit”, the “expression of TNF-α” value [4] was “inhibit” and the size of liver ([5]; vs control group (FIG. 1A)) was “significant decrease”. The weight of liver ([5]; vs control group (FIG. 1B)) was “significant decrease” and the “anticancer effect against glioblastoma” value (glioblastoma) was “anticancer effect”.
